Experimental data published in patent US20220347175A1, “PYRIDAZINONE DERIVATIVE” (Sumitomo Dainippon Pharma Co., Ltd., priority 2018, published 2022).

How the values were obtained:
human Nav1.1 = biological target: T1, human Nav1.1 (Homo sapiens, UniProt P35498); assay: Amplification of Nav1.1-derived voltage-dependent sodium current (Nav1.1 current), cell line stably expressing human Nav1.1, automated patch clamp; assay type: cell-based; settings: for activation at 10 µM / activation at 1 µM / activation at 3 µM: read-out: Nav1.1 current amplification rate (%)
T1 construct: host or cells: HEK293
Method in brief: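 Automated whole-cell voltage-clamp recordings used HEK293 cells stably expressing human Nav1.1, keeping only cells with >500 pA current, with currents evoked by ramp voltage. Compounds were applied in extracellular fluid with 1% DMSO, and amplification (%) was computed from peak current or AUC after versus before addition.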

human Nav1.5 = biological target: T2, human Nav1.5 (Homo sapiens, UniProt Q14524); assay: Amplification of Nav1.5-derived voltage-dependent sodium current (Nav1.5 current), cell line stably expressing human Nav1.5, automated patch clamp; assay type: cell-based; settings: for activation at 10 µM / activation at 1 µM / activation at 3 µM: read-out: Nav1.5 current amplification rate (%)
T2 construct: expressed in transfected cells; host or cells: CHO-K1 (T-REx System, ThermoFisher Scientific)
T2 sequence (Q14524 1-2015 isoform Q14524-2): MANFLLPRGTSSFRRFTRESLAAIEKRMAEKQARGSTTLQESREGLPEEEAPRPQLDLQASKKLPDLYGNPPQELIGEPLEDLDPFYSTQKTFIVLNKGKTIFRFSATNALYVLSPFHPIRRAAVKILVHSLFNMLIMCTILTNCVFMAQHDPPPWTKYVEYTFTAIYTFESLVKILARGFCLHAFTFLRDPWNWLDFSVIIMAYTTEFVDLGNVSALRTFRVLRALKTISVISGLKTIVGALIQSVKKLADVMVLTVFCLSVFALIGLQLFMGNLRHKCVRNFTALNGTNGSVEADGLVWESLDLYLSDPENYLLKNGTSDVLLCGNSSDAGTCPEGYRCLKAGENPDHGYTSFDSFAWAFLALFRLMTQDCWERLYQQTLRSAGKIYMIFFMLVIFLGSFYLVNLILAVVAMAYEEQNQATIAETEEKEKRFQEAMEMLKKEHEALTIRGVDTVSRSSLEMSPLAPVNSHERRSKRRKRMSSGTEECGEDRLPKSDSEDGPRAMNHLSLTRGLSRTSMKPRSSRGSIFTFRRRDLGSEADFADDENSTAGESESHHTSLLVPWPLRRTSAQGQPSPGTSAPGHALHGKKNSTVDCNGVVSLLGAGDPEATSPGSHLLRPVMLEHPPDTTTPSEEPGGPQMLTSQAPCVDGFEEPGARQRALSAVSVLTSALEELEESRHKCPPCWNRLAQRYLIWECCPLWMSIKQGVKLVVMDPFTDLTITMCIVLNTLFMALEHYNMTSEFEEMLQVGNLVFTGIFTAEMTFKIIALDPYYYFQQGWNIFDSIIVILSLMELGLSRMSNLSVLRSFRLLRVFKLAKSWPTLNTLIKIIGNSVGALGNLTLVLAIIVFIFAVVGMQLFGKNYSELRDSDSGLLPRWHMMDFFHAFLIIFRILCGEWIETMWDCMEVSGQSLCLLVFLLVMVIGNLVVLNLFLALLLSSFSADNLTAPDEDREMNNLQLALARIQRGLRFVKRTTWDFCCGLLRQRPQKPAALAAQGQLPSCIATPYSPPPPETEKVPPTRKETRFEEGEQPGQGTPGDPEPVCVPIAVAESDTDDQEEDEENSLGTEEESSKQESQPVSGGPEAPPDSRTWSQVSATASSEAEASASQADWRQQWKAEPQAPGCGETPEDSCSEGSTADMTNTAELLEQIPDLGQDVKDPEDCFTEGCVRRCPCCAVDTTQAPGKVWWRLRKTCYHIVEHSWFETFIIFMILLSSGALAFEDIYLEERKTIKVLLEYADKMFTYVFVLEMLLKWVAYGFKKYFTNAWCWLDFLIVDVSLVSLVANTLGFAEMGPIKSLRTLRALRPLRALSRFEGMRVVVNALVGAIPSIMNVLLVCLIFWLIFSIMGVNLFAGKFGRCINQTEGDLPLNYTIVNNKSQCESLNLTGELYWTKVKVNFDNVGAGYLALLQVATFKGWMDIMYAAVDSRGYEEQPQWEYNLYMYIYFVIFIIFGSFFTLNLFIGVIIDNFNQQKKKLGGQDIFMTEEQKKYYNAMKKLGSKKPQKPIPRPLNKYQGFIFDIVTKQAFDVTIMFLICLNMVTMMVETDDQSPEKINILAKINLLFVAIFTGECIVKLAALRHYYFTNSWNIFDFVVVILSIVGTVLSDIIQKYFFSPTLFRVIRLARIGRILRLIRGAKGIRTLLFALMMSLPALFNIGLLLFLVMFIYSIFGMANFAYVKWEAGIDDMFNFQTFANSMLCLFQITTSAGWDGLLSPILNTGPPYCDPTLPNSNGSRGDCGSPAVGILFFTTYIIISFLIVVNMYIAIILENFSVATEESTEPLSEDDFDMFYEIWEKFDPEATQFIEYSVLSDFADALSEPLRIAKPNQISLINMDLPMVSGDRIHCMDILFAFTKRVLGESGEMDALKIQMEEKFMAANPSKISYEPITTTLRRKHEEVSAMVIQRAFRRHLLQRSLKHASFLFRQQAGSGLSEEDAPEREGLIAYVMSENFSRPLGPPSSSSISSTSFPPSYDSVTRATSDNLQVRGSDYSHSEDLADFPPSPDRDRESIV

[1] = compound 3 μmol/L, HEK293 stably expressing human Nav1.1
[2] = compound 3 μmol/L, CHO-K1 stably expressing human Nav1.5
[3] = compound 1 μmol/L, HEK293 stably expressing human Nav1.1
[4] = compound 1 μmol/L, CHO-K1 stably expressing human Nav1.5
[5] = 10 μmol/L compound, change of the area under the curve of Nav1.1 current (Test Result 1)
[6] = 10 μmol/L compound, change of the area under the curve of Nav1.5 current (Test Result 1)

| Structure (SMILES) | activation at 10 µM (human Nav1.1; [5]) | Nav1.1 current amplification rate (%) (human Nav1.1; [5]) | activation at 10 µM (human Nav1.5; [6]) | Nav1.5 current amplification rate (%) (human Nav1.5; [6]) | also measured |
| --- | --- | --- | --- | --- | --- |
| Cc1ncccc1N1CCN(C(=O)Cn2nc(C3=CCC(C)CC3)ccc2=O)CC1 (stereo not drawn) [Example 410] |  |  |  |  | Nav1.1 current amplification rate (%) (human Nav1.1; [1]): 66%; Nav1.5 current amplification rate (%) (human Nav1.5; [2]): 10% |
| CC1(C)CC=C(c2ccc(=O)n(CC(=O)N3CCc4c(N5CCOCC5)cccc43)n2)CC1 [Example 432] |  |  |  |  | Nav1.1 current amplification rate (%) (human Nav1.1; [3]): 280%; Nav1.5 current amplification rate (%) (human Nav1.5; [4]): 16% |
| CC1CCN(c2ccc(=O)n(CC(=O)Nc3ccc(C(=O)N4CCCC4)nc3)n2)CC1 [Example 217] | 25% |  | 1% |  |  |
| Cc1ccc(-c2ccc(=O)n(CC(=O)Nc3ccc4ocnc4c3)n2)s1 [Example 455] |  | 131% |  | 21% |  |
| CC1CC=C(c2ccc(=O)n(CC(=O)N3CC=C(c4nccc5occc45)CC3)n2)CC1 (stereo not drawn) [Example 404] |  | 42% |  | 6% |  |
| CC1(C)CC=C(c2ccc(=O)n(CC(=O)Nc3ccn4ccnc4c3)n2)CC1 [Example 425] |  | 283% |  | 60% |  |
| CC1CC=C(c2ccc(=O)n(CC(=O)N3CCc4c(Cn5cncn5)cccc43)n2)CC1 (racemic) [Example 294] |  |  |  |  | Nav1.1 current amplification rate (%) (human Nav1.1; [3]): 271%; Nav1.5 current amplification rate (%) (human Nav1.5; [4]): 427% |
| O=C(Cn1nc(C2=CCCC2)ccc1=O)N1CCc2c(-c3ccnnc3)cccc21 [Example 523] |  |  |  |  | activation at 1 µM (human Nav1.1; [3]): 129%; activation at 1 µM (human Nav1.5; [4]): 5% |
| Cc1nc2cc(NC(=O)Cn3nc(C4=CCC(C)CC4)ccc3=O)cnc2s1 (racemic) [Example 326] |  |  |  |  | Nav1.1 current amplification rate (%) (human Nav1.1; [1]): 132%; Nav1.5 current amplification rate (%) (human Nav1.5; [2]): 34% |
| COc1cc(NC(=O)Cn2nc(N3CCC(C)CC3)ccc2=O)ccn1 [Example 74] |  | 70% |  | −2% |  |
| CC(=O)N1CC(c2cccc3c2CCN3C(=O)Cn2nc(-c3ccc(C)cc3)ccc2=O)C1 [Example 520] |  |  |  |  | activation at 1 µM (human Nav1.1; [3]): 253%; activation at 1 µM (human Nav1.5; [4]): 252% |
| CC1CC=C(c2ccc(=O)n(CC(=O)Nc3ccc4ncnn4c3)n2)CC1 (racemic) [Example 339] |  |  |  |  | Nav1.1 current amplification rate (%) (human Nav1.1; [3]): 127%; Nav1.5 current amplification rate (%) (human Nav1.5; [4]): 15% |
| CC1CC=C(c2ccc(=O)n(CC(=O)N3CCc4c(CN5CC=CC5)cccc43)n2)CC1 (racemic) [Example 287] |  |  |  |  | Nav1.1 current amplification rate (%) (human Nav1.1; [3]): 73%; Nav1.5 current amplification rate (%) (human Nav1.5; [4]): 123% |
| Cc1ccc(-c2ccc(=O)n(CC(=O)N3CCc4cnccc43)n2)cc1 [Example 159] |  | 32% |  | 26% |  |
| CC1CC=C(c2ccc(=O)n(CC(=O)N3CC(C)N(c4cccnc4)C(C)C3)n2)CC1 (stereo not drawn) [Example 416] |  | 383% |  | 86% |  |
| N#Cc1ccc(NC(=O)Cn2nc(C3=CCC(F)(F)CC3)ccc2=O)cn1 [Example 109] | 57% |  | 23% |  |  |

| Structure (SMILES) | activation at 10 µM (human Nav1.1; [5]) | Nav1.1 current amplification rate (%) (human Nav1.1; [5]) | activation at 10 µM (human Nav1.5; [6]) | Nav1.5 current amplification rate (%) (human Nav1.5; [6]) | also measured |
| --- | --- | --- | --- | --- | --- |
| COc1cc(C2=CCC(C)CC2)nn(CC(=O)N2CCN(c3cncc(F)c3)CC2)c1=O (racemic) [Example 488] |  | 376% |  | 174% |  |
| Cc1cc(NC(=O)Cn2nc(C3=CCC(C)CC3)ccc2=O)cc2ncoc12 (racemic) [Example 323] |  |  |  |  | Nav1.1 current amplification rate (%) (human Nav1.1; [1]): 154%; Nav1.5 current amplification rate (%) (human Nav1.5; [2]): 11% |
| O=C(Cn1nc(C2=CCC(F)(F)CC2)ccc1=O)N1CCc2c(-c3ccnnc3)cccc21 [Example 527] |  |  |  |  | activation at 1 µM (human Nav1.1; [3]): 324%; activation at 1 µM (human Nav1.5; [4]): 36% |
| COc1ccc(N2CCN(C(=O)Cn3nc(C4=CCC(C(F)(F)F)CC4)ccc3=O)CC2)cn1 (stereo not drawn) [Example 511] |  |  |  |  | activation at 3 µM (human Nav1.1; [1]): 37%; activation at 3 µM (human Nav1.5; [2]): 6% |
| CC1(C)CC=C(c2ccc(=O)n(CC(=O)Nc3ccc4c(c3)OCC4)n2)CC1 [Example 426] |  | 244% |  | 20% |  |
| CC1CCN(c2ccc(=O)n(CC(=O)Nc3ccc4c(c3)NC(=O)C4)n2)CC1 [Example 86] |  | 73% |  | 3% |  |
| COc1ncc(C2=CCN(C(=O)Cn3nc(C4=CCC(C)CC4)ccc3=O)CC2)cn1 (racemic) [Example 400] |  | 238% |  | 24% |  |
| O=C(Cn1nc(C2=CCCCC2)ccc1=O)N1CCc2c(-c3cnccn3)cccc21 [Example 521] |  |  |  |  | activation at 1 µM (human Nav1.1; [3]): 358%; activation at 1 µM (human Nav1.5; [4]): 9% |
| O=C(Cn1nc(C2=CCC(F)(F)CC2)ccc1=O)Nc1cncc(C(F)(F)F)c1 [Example 112] | 46% |  | 9% |  |  |
| CC1CCN(c2ccc(=O)n(CC(=O)Nc3ccc4oc(N(C)C)nc4c3)n2)CC1 [Example 91] |  | 93% |  | 9% |  |
| COc1nc2cc(NC(=O)Cn3nc(N4CCC(C)CC4)ccc3=O)ccc2o1 [Example 99] |  | 103% |  | 4% |  |
| CC1CC=C(c2ccc(=O)n(CC(=O)Nc3ccn4cncc4c3)n2)CC1 (racemic) [Example 338] |  |  |  |  | Nav1.1 current amplification rate (%) (human Nav1.1; [3]): 241%; Nav1.5 current amplification rate (%) (human Nav1.5; [4]): 49% |
| CC1CC=C(c2ccc(=O)n(CC(=O)Nc3ccn4ccnc4n3)n2)CC1 (racemic) [Example 242] |  | 97% |  | 10% |  |
| CC1CCN(c2ccc(=O)n(CC(=O)Nc3cc(F)c4ocnc4c3)n2)CC1 [Example 216] | 121% |  | 3% |  |  |
| CC1CC=C(c2ccc(=O)n(CC(=O)Nc3ccc4oc(N(C)C)nc4c3)n2)CC1 (stereo not drawn) [Example 244, N-[2-(dimethylamino)-1,3-benzooxazol-5-yl]-2-[3-(4-methylcyclohex-1-en)-6-oxopyridazin-1(6H)-yl]acetamide] |  |  |  |  | activation at 3 µM (human Nav1.1; [1]): 263%; activation at 3 µM (human Nav1.5; [2]): 21% |
| CC1CC=C(c2ccc(=O)n(CC(=O)N3CCN(c4cncc(F)c4)CC3)n2)CC1 (racemic) [Example 263] |  | 342% |  | 32% |  |

Now from value to molecule, other results behind:

| activation at 10 µM (human Nav1.1; [5]) | Nav1.1 current amplification rate (%) (human Nav1.1; [5]) | Structure (SMILES) | activation at 10 µM (human Nav1.5; [6]) | Nav1.5 current amplification rate (%) (human Nav1.5; [6]) | also measured |
| --- | --- | --- | --- | --- | --- |
| 184% |  | N#Cc1ccc(NC(=O)Cn2nc(N3CCC4(CCCC4)C3)ccc2=O)cn1 [Example 121] | 98% |  |  |
| 50% |  | CC1CCN(c2ccc(=O)n(CC(=O)N3CCc4cc(N5CCN(C)CC5)ccc43)n2)CC1 [Example 220] | 5% |  |  |
| 136% |  | COc1cc(N2CCC3(CCC3)C2)nn(CC(=O)Nc2ccn3ccnc3c2)c1=O [Example 213] | 5% |  |  |
| 205% |  | O=C(Cn1nc(N2CCC3(CCC3)CC2)ccc1=O)Nc1ccn2ccnc2c1 [Example 168] | 23% |  |  |
| 118% |  | COc1cc(N2CCC(C)(C)CC2)nn(CC(=O)N2CCc3c(N4CCOCC4)cccc32)c1=O [Example 224] | 11% |  |  |
| 36% |  | Cc1cc(NC(=O)Cn2nc(N3CCC4(CCCC4)C3)c(C)cc2=O)cc(C)n1 [Example 199] | 1% |  |  |
| 103% |  | Cc1cc(N2CCC(C)CC2)nn(CC(=O)Nc2ccc3ocnc3c2)c1=O [Example 200] | 5% |  |  |
| 209% |  | COc1cc(=O)n(CC(=O)Nc2ccc3ocnc3c2)nc1N1CCC2(CCCC2)C1 [Example 195] | 29% |  |  |
| 97% |  | CC1CCN(c2ccc(=O)n(CC(=O)N3CCc4cc(N5CCCC5=O)ccc43)n2)CC1 [Example 219] | 12% |  |  |
|  | 11% | COc1cccc2c1CCN2C(=O)Cn1nc(C2=CCC(C)(C)CC2)ccc1=O [Example 431] |  | 3% |  |
| 150% |  | Cc1c(N2CCC3(CCCC3)C2)nn(CC(=O)Nc2ccn3ccnc3c2)c(=O)c1C [Example 166] | 45% |  |  |
|  | 30% | CC1(C)CC=C(c2ccc(=O)n(CC(=O)N3CCC4(CCOCC4)CC3)n2)CC1 [Example 441] |  | 1% |  |
| 155% |  | O=C(Cn1nc(N2CCC3(CCCC3)C2)ccc1=O)Nc1ccn2nccc2c1 [Example 169] | 43% |  |  |
| 281% |  | CC1(C)CCN(c2ccc(=O)n(CC(=O)N3CCc4c(N5CCOCC5)cccc43)n2)CC1 [Example 221] | 15% |  |  |
|  | 243% | O=C(Cn1nc(C2=CCC(F)(F)CC2)ccc1=O)N1CCc2c(N3CCOCC3)cccc21 [Example 469] |  | 25% |  |
| 146% |  | Cc1cc(N2CCC3(CCC3)C2)nn(CC(=O)N2CCc3c(N4CCN(C)CC4)cccc32)c1=O [Example 225] | 2% |  |  |
|  | 232% | COC1CN(c2cccc3c2CCN3C(=O)Cn2nc(C3=CCC(C)(C)CC3)ccc2=O)C1 [Example 434] |  | 142% |  |
|  | 633% | CC1(C)CC=C(c2ccc(=O)n(CC(=O)N3CCc4c(N5CCOCC5)cccc43)n2)C1 [Example 475] |  | 70% |  |
| 44% |  | O=C(Cn1nc(N2CCCC3(CCC3)C2)ccc1=O)Nc1cccc(-c2nccs2)c1 [Example 134] | -5% |  |  |
